Calls of active or inactive are those of the source. The calls are words filed in the database; no cut-off is given here.
Key:
[1] = molecular target: T1, Tyrosine-protein phosphatase non-receptor type 11 (Homo sapiens) (UniProt Q06124); test: Inhibition of SHP2 in human MV4-11 cells assessed as reduction in Erk1/2 phosphorylation level at upto 20 uM measured after 4 hrs by Western blot analysis; format: cell-based
T1 sequence (whole entry): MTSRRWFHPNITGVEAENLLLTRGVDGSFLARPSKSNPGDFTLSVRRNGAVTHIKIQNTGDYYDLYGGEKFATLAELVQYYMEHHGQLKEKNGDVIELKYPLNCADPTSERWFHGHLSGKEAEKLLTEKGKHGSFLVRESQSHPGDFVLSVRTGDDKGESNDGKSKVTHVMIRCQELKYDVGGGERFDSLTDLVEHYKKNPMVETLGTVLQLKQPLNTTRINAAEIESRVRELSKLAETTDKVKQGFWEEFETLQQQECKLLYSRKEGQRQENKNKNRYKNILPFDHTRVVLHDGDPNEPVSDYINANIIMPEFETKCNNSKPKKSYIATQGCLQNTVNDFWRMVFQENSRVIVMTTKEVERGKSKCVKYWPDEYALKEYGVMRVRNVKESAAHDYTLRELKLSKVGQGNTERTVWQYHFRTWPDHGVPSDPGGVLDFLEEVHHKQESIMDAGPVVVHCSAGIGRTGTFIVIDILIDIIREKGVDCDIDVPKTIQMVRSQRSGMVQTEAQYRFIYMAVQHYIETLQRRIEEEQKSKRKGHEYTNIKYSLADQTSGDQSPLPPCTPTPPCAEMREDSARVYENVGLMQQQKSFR

MV4-11 [2] = test: Induction of apoptosis in human MV4-11 cells assessed as early apoptotic cells at 2.5 uM measured after 4 hrs by Annexin V-FITC/7-AAD staining based flow cytometric analysis (reference value: 2.48%); format: functional
MV4-11 [3] = test: Induction of apoptosis in human MV4-11 cells assessed as late apoptotic cells at 5 uM measured after 4 hrs by Annexin V-FITC/7-AAD staining based flow cytometric analysis (reference value: 0.98%); format: functional
MV4-11 [4] = test: Induction of apoptosis in human MV4-11 cells assessed as early apoptotic cells at 5 uM measured after 1 hrs by Annexin V-FITC/7-AAD staining based flow cytometric analysis (reference value: 2.13%); format: functional
MV4-11 [5] = test: Induction of apoptosis in human MV4-11 cells assessed as late apoptotic cells at 5 uM measured after 4 hrs by Annexin V-FITC/7-AAD staining based flow cytometric analysis (reference value: 1.58%); format: functional
[6] = molecular target: T2, Tyrosine-protein phosphatase non-receptor type 11 (Homo sapiens, UniProt Q06124); test: Inhibition of full length wild type recombinant human SHP2 (1 to 525 residues) using DIPMUP as substrate preincubated for 30 mins followed by substrate addition and measured after 30 mins by fluorescence based analysis
T2 sequence (Q06124 whole entry): T1 sequence (whole entry)

[7] = molecular target: T1, Tyrosine-protein phosphatase non-receptor type 11 (Homo sapiens); test: Inhibition of SHP2 in human NCI-H358 cells assessed as reduction in Akt phosphorylation level at upto 20 uM measured after 8 hrs by Western blot analysis; format: cell-based
MV4-11 [8] = test: Antiproliferative activity against human MV4-11 cells assessed as inhibition of cell growth measured after 72 hrs by CCK8 method; format: functional, cell-based; details: MV4-11, 72 h
MV4-11 [9] = test: Induction of apoptosis in human MV4-11 cells assessed as early apoptotic cells at 5 uM measured after 2 hrs by Annexin V-FITC/7-AAD staining based flow cytometric analysis (reference value: 2.13%); format: functional
MV4-11 [10] = test: Induction of apoptosis in human MV4-11 cells assessed as necrotic cells at 1.25 uM measured after 4 hrs by Annexin V-FITC/7-AAD staining based flow cytometric analysis (reference value: 0.041%); format: functional
MV4-11 [11] = test: Induction of apoptosis in human MV4-11 cells assessed as late apoptotic cells at 5 uM measured after 2 hrs by Annexin V-FITC/7-AAD staining based flow cytometric analysis (reference value: 0.98%); format: functional
MV4-11 [12] = test: Induction of apoptosis in human MV4-11 cells assessed as necrotic cells at 5 uM measured after 4 hrs by Annexin V-FITC/7-AAD staining based flow cytometric analysis (reference value: 0.068%); format: functional
MV4-11 [13] = test: Induction of apoptosis in human MV4-11 cells assessed as viable cells at 5 uM measured after 4 hrs by Annexin V-FITC/7-AAD staining based flow cytometric analysis (reference value: 96.8%); format: functional; details: read-out: Activity
[14] = Inhibition of full length recombinant human SHP2 E76A mutant (1 to 525 residues) using DIPMUP as substrate preincubated for 30 mins followed by substrate addition and measured after 30 mins by fluorescence based analysis
MV4-11 [15] = test: Induction of apoptosis in human MV4-11 cells assessed as necrotic cells at 2.5 uM measured after 4 hrs by Annexin V-FITC/7-AAD staining based flow cytometric analysis (reference value: 0.041%); format: functional
[16] = molecular target: T1, Tyrosine-protein phosphatase non-receptor type 11 (Homo sapiens); test: Inhibition of SHP2 in human NCI-H358 cells assessed as reduction in Erk1/2 phosphorylation level at upto 20 uM measured after 8 hrs by Western blot analysis; format: cell-based
NCI-H358 = test: Antiproliferative activity against human NCI-H358 cells assessed as inhibition of cell growth measured after 72 hrs by CCK8 method; format: functional, cell-based; details: NCI-H358, 72 h
[17] = molecular target: Tyrosine-protein phosphatase non-receptor type 6 (Homo sapiens, UniProt P29350); test: Inhibition of full length recombinant human SHP1 (1 to 570 residues) using DIPMUP as substrate preincubated for 30 mins followed by substrate addition and measured after 30 mins by fluorescence based analysis
Sequence of Tyrosine-protein phosphatase non-receptor type 6 (P29350 whole entry, the tested form may be a part): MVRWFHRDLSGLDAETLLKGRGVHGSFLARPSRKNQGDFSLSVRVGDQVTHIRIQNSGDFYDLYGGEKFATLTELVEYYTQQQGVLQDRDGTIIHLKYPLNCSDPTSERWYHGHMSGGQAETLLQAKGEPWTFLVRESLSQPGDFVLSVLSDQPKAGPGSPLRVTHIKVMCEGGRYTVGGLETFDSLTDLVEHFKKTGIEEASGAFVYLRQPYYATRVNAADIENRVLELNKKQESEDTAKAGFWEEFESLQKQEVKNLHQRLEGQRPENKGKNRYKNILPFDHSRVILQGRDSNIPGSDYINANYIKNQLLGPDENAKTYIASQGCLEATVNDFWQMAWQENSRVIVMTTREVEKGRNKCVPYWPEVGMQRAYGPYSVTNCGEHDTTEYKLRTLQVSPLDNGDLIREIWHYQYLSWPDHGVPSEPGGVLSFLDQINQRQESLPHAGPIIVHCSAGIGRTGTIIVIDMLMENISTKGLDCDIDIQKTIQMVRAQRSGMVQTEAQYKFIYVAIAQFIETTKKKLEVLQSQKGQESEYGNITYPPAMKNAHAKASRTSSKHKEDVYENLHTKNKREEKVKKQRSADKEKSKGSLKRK

[18] = molecular target: T2, Tyrosine-protein phosphatase non-receptor type 11; test: Inhibition of recombinant human SHP2 PTPase activity (219 to 525 residues) using DIPMUP as substrate preincubated for 30 mins followed by substrate addition and measured after 30 mins by fluorescence based analysis
MV4-11 [19] = test: Induction of apoptosis in human MV4-11 cells assessed as necrotic cells at 5 uM measured after 2 hrs by Annexin V-FITC/7-AAD staining based flow cytometric analysis (reference value: 0.068%); format: functional
MV4-11 [20] = test: Induction of apoptosis in human MV4-11 cells assessed as late apoptotic cells at 5 uM measured after 1 hrs by Annexin V-FITC/7-AAD staining based flow cytometric analysis (reference value: 0.98%); format: functional
MV4-11 [21] = test: Induction of apoptosis in human MV4-11 cells assessed as viable cells at 1.25 uM measured after 4 hrs by Annexin V-FITC/7-AAD staining based flow cytometric analysis (reference value: 95.9%); format: functional; details: read-out: Activity
MV4-11 [22] = test: Induction of apoptosis in human MV4-11 cells assessed as early apoptotic cells at 5 uM measured after 4 hrs by Annexin V-FITC/7-AAD staining based flow cytometric analysis (reference value: 2.48%); format: functional
A549 = test: Antiproliferative activity against human A549 cells assessed as inhibition of cell growth measured after 72 hrs by CCK8 method; format: functional, cell-based; details: A549, 72 h
MV4-11 [23] = test: Induction of apoptosis in human MV4-11 cells assessed as viable cells at 5 uM measured after 1 hrs by Annexin V-FITC/7-AAD staining based flow cytometric analysis (reference value: 96.8%); format: functional; details: read-out: Activity
[24] = molecular target: Tyrosine-protein phosphatase non-receptor type 11 (Homo sapiens, UniProt Q06124, E76K); test: Inhibition of full length recombinant human SHP2 E76K mutant (1 to 525 residues) using DIPMUP as substrate preincubated for 30 mins followed by substrate addition and measured after 30 mins by fluorescence based analysis
Sequence of Tyrosine-protein phosphatase non-receptor type 11 (Homo sapiens, UniProt Q06124, E76K) (Q06124 2-593 E76K limits assumed): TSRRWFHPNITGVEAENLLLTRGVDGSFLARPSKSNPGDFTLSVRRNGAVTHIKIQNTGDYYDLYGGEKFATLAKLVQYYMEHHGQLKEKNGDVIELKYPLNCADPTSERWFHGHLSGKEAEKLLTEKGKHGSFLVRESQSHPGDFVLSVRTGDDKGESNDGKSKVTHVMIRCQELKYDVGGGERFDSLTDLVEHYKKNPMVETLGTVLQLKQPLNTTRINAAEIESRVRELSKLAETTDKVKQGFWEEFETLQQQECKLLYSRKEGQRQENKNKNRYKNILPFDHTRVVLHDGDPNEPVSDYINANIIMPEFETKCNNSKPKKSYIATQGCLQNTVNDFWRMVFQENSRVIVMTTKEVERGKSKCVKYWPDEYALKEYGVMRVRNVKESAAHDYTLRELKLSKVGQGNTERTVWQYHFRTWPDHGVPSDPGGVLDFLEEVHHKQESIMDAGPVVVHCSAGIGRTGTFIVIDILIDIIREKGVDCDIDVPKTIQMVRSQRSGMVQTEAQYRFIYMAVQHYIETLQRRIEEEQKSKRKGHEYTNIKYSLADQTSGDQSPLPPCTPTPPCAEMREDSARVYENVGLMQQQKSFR

## C[C@@H]1OCC2(CCN(c3nnc(Sc4cccc(Cl)c4Cl)s3)CC2)[C@@H]1N
[1]
  inhibition: Active
MV4-11 [2]
  Activity: 2.09%
MV4-11 [3]
  Activity: 7.78%
MV4-11 [4]
  Activity: 4.74%
MV4-11 [5]
  Activity: 5.98%
[6]
  IC50: 0.84 µM
[7]
  inhibition: Active
MV4-11 [8]
  IC50: 3.85 µM
MV4-11 [9]
  Activity: 10.9%
MV4-11 [10]
  Activity: 0.12%
MV4-11 [11]
  Activity: 7.03%
MV4-11 [12]
  Activity: 1.38%
MV4-11 [13]
  viability at 5 µM: 80%
[14]
  IC50: 1.38 µM
MV4-11 [15]
  Activity: 0.076%
[16]
  inhibition: Active
NCI-H358
  IC50: 12 µM
[17]
  IC50: > 50 µM
[18]
  IC50: > 50 µM
MV4-11 [19]
  Activity: 1.17%
MV4-11 [20]
  Activity: 4.39%
MV4-11 [21]
  viability at 1.25 µM: 95.9%
MV4-11 [22]
  Activity: 8.42%
A549
  IC50: 12.1 µM
MV4-11 [23]
  viability at 5 µM: 90%
[24]
  IC50: 6.88 µM

Reference: ChEMBL document CHEMBL5620403, “Design, synthesis, activity and molecular dynamics studies of 1,3,4-thiadiazole derivatives as selective allosteric inhibitors of SHP2 for the treatment of cancer” (Eur J Med Chem, 2023)
